The results in this text go back to patent publication US7345068B2, “Aromatic amino acid derivatives and medicinal compositions” (priority 2002, dated 2008).

For one data set, the target named is T1, LAT1 (Homo sapiens, UniProt Q01650).
T1 construct: Using human bladder cancer cell strain T24 cells, in which LAT1 only was strongly expressed; endogenous in cells; host or cells: T24 human bladder cancer cells
Put plainly: LAT1 inhibiting activity: inhibition of 14C-L-leucine uptake in T24 cells. The data set is classed as cell-based. The following applies: 1 μM 14C-Leu, 1-minute uptake. As to the method:
1) To each of the weighed test compounds, DMSO was added to prepare a 100 mM solution or suspension as a DMSO stock. In an assay, the stock was diluted 1,000 fold with a buffer described below. The final concentration of the test compound was 100 μM and the final concentration of DMSO was 0.1%.
2) The LAT1 inhibiting activity of the test compound was determined in the following manner. Using human bladder cancer cell strain T24 cells, in which LAT1 only was strongly expressed, inhibiting activity of each test compound against “^14C”-L-leucine uptake was determined as the LAT1 inhibiting activity.
T24 cells in a logarithmic growth-phase were transferred to a 24-well plate at 0.8×10^5 cell/well and cultured at 37° C. for 2 days. After the plate was incubated at 37° C. on a water bath for 5 minutes, the fixed cells were washed three times with a Hank's balanced salt solution (HBSS: 25 mM HEPES, 125 mM choline chloride, 5.6 mM glucose, 4.8 mM KCl, 1.2 mM MgSO4, 1.2 mM KH2PO4, 1.3 mM CaCl2, pH 7.4) warmed to 37° C., not containing Na^+, to which 500 μl of HBSS (37° C.) was added. Then, further incubation was carried out for 7 minutes.
After the incubation was finished, a supernatant was replaced with HBSS containing 1 μM ^14C-Leu and 100 μM test compound (37° C.), followed by 1-minute uptake. Then, the cells were washed three times with HBSS of 4° C. The washed cells were added with 500 μl of 0.1 N NaOH to dissolve the cells for 20 minutes. The cell solution was transferred to a vial, to which 3 ml of a scintillator was added to measure the radioactivity with a liquid scintillation counter.
Inhibition % was calculated by the following formula. Inhibition %=100−(radioactivity of the well added with the test compound)/(radioactivity of the well not added with the test compound)×100

T1 sequence (Q01650 whole entry): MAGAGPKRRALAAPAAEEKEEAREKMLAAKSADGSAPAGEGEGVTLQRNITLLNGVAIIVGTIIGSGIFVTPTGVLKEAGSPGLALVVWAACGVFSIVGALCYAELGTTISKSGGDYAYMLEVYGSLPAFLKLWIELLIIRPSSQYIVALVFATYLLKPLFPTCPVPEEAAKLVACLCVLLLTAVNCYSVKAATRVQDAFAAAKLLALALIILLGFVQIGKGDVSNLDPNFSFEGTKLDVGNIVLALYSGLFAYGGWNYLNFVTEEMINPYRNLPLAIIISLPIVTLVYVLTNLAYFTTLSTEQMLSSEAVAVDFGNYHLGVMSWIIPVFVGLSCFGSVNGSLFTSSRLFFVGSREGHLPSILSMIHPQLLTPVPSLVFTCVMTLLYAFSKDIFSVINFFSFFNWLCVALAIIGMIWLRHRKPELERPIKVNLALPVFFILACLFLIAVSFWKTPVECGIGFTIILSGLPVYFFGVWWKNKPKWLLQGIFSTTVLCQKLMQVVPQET
T1 sequence (P08195 102-630 partner): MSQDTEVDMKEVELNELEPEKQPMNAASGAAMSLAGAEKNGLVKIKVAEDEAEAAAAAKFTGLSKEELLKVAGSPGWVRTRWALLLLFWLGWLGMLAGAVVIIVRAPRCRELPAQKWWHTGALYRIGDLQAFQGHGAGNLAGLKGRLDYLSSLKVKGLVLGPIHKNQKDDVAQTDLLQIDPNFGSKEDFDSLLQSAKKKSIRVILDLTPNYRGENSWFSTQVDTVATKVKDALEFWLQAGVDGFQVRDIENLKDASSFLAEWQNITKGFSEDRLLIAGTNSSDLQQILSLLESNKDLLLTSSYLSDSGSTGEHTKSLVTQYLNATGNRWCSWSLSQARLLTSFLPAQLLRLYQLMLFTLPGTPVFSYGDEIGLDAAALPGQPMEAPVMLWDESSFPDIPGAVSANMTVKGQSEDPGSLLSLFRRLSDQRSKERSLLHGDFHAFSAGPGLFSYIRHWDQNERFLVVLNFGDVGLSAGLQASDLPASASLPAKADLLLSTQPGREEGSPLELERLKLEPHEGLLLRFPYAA

With `N[C@@H](Cc1cccc(Oc2cccc(-c3ccncc3)c2)c1)C(=O)O` [Example 96], the melting point was 182 to 185 °C (dec.). Further, on LAT1, the IC50 stood at 840 nM.
The corresponding values for `CN(C)c1ccc(-c2cccc(Oc3cccc(C[C@H](N)C(=O)O)c3)c2)cn1` [Example 97] are 214 to 218 °C (dec.) and 10 nM.
The corresponding values for `N[C@@H](Cc1cccc(Oc2cccc(-c3ccccn3)c2)c1)C(=O)O` [Example 99] are 187 to 192 °C (dec.) and 520 nM.
As to `N[C@@H](Cc1cccc(Oc2cccc(-c3cccnc3)c2)c1)C(=O)O` [Example 100], the melting point was 200 to 204 °C (dec.). Besides, it took 220 nM to reach half-maximal inhibition against LAT1 (IC50).
With `N[C@@H](Cc1cccc(Oc2cccc(-c3cccc(Cl)c3)c2)c1)C(=O)O` [Example 102], the melting point was 193 to 198 °C (dec.). This compound also yielded an IC50 on LAT1 of 60 nM.
The corresponding values for `N[C@@H](Cc1cccc(Oc2cccc(-c3ccc(Cl)cc3)c2)c1)C(=O)O` [Example 103] are 204 to 208 °C (dec.) and 60 nM.
As for `N[C@@H](Cc1cccc(Oc2cccc(-c3cnc4ccccc4c3)c2)c1)C(=O)O` [Example 106], the melting point is 185 to 190 °C (dec.). The IC50 on LAT1 worked out at 830 nM.
The like results for `CN(C)c1ncc(-c2cccc(Oc3cccc(C[C@H](N)C(=O)O)c3)c2)cn1` [Example 108] were, in that order, 191 to 194 °C (dec.) and 670 nM.
The corresponding values for `N[C@@H](Cc1cccc(-c2cccc(-c3ccccc3)c2)c1)C(=O)O` [Example 112] are 199 to 201 °C (dec.) and 810 nM.
